Assays:
FLT3-D835Y = biological target: T1, FLT3-D835Y (Homo sapiens, UniProt P36888, D835Y); assay: FLT3-D835Y biochemical kinase assay (AlphaScreen)
T1 construct: purchased Invitrogen PV3967
T1 sequence (P36888 27-993 D835Y): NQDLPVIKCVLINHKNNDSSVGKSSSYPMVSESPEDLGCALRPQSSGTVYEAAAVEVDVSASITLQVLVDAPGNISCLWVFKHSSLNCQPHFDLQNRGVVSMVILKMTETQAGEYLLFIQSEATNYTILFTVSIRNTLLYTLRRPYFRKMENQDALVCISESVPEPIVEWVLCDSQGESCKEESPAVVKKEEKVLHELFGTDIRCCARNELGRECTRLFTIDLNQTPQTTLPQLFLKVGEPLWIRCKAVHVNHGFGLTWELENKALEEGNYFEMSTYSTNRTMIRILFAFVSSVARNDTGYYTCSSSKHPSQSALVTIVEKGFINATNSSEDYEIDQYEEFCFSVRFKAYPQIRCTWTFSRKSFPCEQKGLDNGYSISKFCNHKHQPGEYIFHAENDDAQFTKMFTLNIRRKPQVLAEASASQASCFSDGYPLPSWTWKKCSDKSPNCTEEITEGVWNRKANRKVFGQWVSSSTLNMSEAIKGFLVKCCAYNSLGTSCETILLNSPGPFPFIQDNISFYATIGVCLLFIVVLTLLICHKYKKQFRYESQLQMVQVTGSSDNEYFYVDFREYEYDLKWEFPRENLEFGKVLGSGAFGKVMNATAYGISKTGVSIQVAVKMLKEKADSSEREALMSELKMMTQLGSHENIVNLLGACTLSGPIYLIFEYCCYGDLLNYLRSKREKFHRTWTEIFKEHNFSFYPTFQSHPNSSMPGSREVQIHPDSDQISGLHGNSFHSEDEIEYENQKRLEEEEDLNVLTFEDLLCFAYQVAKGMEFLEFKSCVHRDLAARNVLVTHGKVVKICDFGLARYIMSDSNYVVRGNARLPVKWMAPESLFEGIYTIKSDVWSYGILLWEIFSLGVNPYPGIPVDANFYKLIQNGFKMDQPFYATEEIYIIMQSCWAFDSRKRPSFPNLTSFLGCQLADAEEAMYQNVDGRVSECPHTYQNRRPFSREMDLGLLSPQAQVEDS
Procedure, shortened: (§1)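 AlphaScreen read-out of tyrosine phosphorylation of a 30 nM biotinylated poly(Glu4-Tyr) substrate, captured on streptavidin donor and PY20 acceptor beads at room temperature. ATP for IC50 work was 100 μM with FLT3-ITD and 10 μM with FLT3-D835Y; reduced 580 nm proximity signal reflects kinase inhibition.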

FLT3-ITD = biological target: T2, FLT3-ITD (Homo sapiens, UniProt P36888); assay: FLT3-ITD biochemical kinase assay (AlphaScreen)
T2 construct: FLT3-ITD; Invitrogen #PV6190
T2 sequence (P36888 1-993): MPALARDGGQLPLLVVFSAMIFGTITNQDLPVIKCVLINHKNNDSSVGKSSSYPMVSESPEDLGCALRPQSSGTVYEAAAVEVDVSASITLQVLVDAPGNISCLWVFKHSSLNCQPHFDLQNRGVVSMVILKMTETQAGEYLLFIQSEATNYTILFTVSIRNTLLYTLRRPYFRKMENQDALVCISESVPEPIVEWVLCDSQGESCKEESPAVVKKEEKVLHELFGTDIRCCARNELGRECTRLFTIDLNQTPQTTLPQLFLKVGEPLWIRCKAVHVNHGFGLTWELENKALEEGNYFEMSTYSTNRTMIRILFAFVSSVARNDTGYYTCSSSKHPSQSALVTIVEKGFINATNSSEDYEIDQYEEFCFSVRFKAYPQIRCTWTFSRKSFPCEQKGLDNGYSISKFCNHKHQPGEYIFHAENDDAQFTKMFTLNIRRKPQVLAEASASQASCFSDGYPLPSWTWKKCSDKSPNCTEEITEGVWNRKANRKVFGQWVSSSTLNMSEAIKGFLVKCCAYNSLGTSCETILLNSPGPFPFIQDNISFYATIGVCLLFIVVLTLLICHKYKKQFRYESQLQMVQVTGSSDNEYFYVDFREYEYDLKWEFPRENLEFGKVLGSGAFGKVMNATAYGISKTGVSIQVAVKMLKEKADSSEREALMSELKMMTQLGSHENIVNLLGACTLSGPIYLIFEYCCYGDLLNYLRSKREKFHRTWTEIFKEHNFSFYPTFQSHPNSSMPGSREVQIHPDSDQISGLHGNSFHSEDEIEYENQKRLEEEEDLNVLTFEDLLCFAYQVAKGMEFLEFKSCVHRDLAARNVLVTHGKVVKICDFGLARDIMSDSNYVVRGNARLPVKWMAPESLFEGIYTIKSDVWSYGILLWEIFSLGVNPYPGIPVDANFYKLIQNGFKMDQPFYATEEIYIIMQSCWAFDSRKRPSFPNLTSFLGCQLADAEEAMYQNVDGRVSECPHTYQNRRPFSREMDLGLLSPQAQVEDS
Procedure, shortened: as §1

SMILES | IC50 (FLT3-D835Y) | IC50 (FLT3-ITD)
O=C(O)Cc1cccc(-c2cnc3[nH]cc(-c4ccc5ncsc5c4)c3n2)c1 [P-164, 2-[3-[7-(1,3-benzothiazol-6-yl)-5H-pyrrolo[2,3-b]pyrazin-2-yl]phenyl]acetic acid] | 0.0001 to 1 µM | 0.0001 to 1 µM
N#Cc1cccc(-c2cnc3[nH]cc(-c4ccc5ncn(-c6ccc(F)cc6)c5c4)c3c2)c1 [P-201, 3-[3-[3-(4-fluorophenyl)benzimidazol-5-yl]-1H-pyrrolo[2,3-b]pyridin-5-yl]benzonitrile] | 0.0001 to 1 µM | 0.0001 to 1 µM
COC(=O)c1cc(-c2cnc3[nH]cc(-c4ccc5ncsc5c4)c3n2)ccc1C [P-165, methyl 5-[7-(1,3-benzothiazol-6-yl)-5H-pyrrolo[2,3-b]pyrazin-2-yl]-2-methyl-benzoate] | 0.0001 to 1 µM | 0.0001 to 1 µM
CC(C)(C)n1cnc2ccc(-c3c[nH]c4ncc(-c5cnc(C6CC6)nc5)cc34)cc21 [P-340, 1-tert-butyl-6-[5-(2-cyclopropylpyrimidin-5-yl)-1H-pyrrolo[2,3-b]pyridin-3-yl]benzimidazole] | 0.0001 to 1 µM | 0.0001 to 1 µM
CC(C)(C)n1cnc2ccc(-c3c[nH]c4ncc(-c5ccc(C6CC6)nc5)nc34)cc21 [P-353, 7-(3-tert-butylbenzimidazol-5-yl)-2-(6-cyclopropyl-3-pyridyl)-5H-pyrrolo[2,3-b]pyrazine] | 0.0001 to 1 µM | 0.0001 to 1 µM
O=S1(=O)CCCN1c1cccc(-c2cnc3[nH]cc(-c4ccc5ncsc5c4)c3n2)c1 [P-170, 2-[3-[7-(1,3-benzothiazol-6-yl)-5H-pyrrolo[2,3-b]pyrazin-2-yl]phenyl]-1,2-thiazolidine 1,1-dioxide] | 0.0001 to 1 µM | 0.0001 to 1 µM
CN(c1cccc(-c2cnc3[nH]cc(-c4ccc5ncsc5c4)c3n2)c1)S(C)(=O)=O [P-167, N-[3-[7-(1,3-benzothiazol-6-yl)-5H-pyrrolo[2,3-b]pyrazin-2-yl]phenyl]-N-methyl-methanesulfonamide] | 0.0001 to 1 µM | 0.0001 to 1 µM
COc1cc(-c2cnc3[nH]cc(-c4ccc5ncsc5c4)c3n2)cc(C)n1 [P-173, 6-[2-(2-methoxy-6-methyl-4-pyridyl)-5H-pyrrolo[2,3-b]pyrazin-7-yl]-1,3-benzothiazole] | 0.0001 to 1 µM | 0.0001 to 1 µM
CC(C)(C)n1cnc2ccc(-c3c[nH]c4ncc(-c5ccc(F)nc5)nc34)cc21 [P-360, 7-(3-tert-butylbenzimidazol-5-yl)-2-(6-fluoro-3-pyridyl)-5H-pyrrolo[2,3-b]pyrazine] | 0.0001 to 1 µM | 0.0001 to 1 µM
Cn1cnc2ccc(-c3c[nH]c4ncc(-c5cccc(CC(=O)O)c5)cc34)cc21 [P-185, 2-[3-[3-(3-methylbenzimidazol-5-yl)-1H-pyrrolo[2,3-b]pyridin-5-yl]phenyl]acetic acid] | 0.0001 to 1 µM | 0.0001 to 1 µM
COc1cc(-c2cnc3[nH]cc(-c4ccc5ncn(C)c5c4)c3n2)cc(C)n1 [P-180, 2-(2-methoxy-6-methyl-4-pyridyl)-7-(3-methylbenzimidazol-5-yl)-5H-pyrrolo[2,3-b]pyrazine] | 0.0001 to 1 µM | 0.0001 to 1 µM
CC(C)S(=O)(=O)Nc1cccc(-c2cnc3[nH]cc(-c4ccc5ncn(C(C)(C)C)c5c4)c3c2)c1 [P-214, N-[3-[3-(3-tert-butylbenzimidazol-5-yl)-1H-pyrrolo[2,3-b]pyridin-5-yl]phenyl]propane-2-sulfonamide] | 0.0001 to 1 µM | 0.0001 to 1 µM
CC(C)(C)n1cnc2ccc(-c3c[nH]c4ncc(-c5cnc(C(F)(F)F)nc5)nc34)cc21 [P-343, 7-(3-tert-butylbenzimidazol-5-yl)-2-[2-(trifluoromethyl)pyrimidin-5-yl]-5H-pyrrolo[2,3-b]pyrazine] | 0.0001 to 1 µM | 0.0001 to 1 µM
O=C(C1CC1)N1CC=C(c2cnc3[nH]cc(-c4ccc5c(c4)N(CC(F)(F)F)CCO5)c3n2)C1 [P-190] | 0.0001 to 1 µM | 0.0001 to 1 µM
Cn1cnc2ccc(-c3c[nH]c4ncc(-c5cccc(S(=O)(=O)N6CCCC6)c5)nc34)cc21 [P-156, 7-(3-methylbenzimidazol-5-yl)-2-(3-pyrrolidin-1-ylsulfonylphenyl)-5H-pyrrolo[2,3-b]pyrazine] | 0.0001 to 1 µM | 0.0001 to 1 µM
FC(F)(F)Oc1cccc(-c2cnc3[nH]cc(-c4ccc5ncn(C6CCCNC6)c5c4)c3c2)c1 (stereo not drawn) [P-203, 1-(3-piperidyl)-6-[5-[3-(trifluoromethoxy)phenyl]-1H-pyrrolo[2,3-b]pyridin-3-yl]benzimidazole] | 0.0001 to 1 µM | 0.0001 to 1 µM
Cn1cnc2ccc(-c3c[nH]c4ncc(-c5cnn(-c6ccccn6)c5)cc34)cc21 [P-174, 1-methyl-6-[5-[1-(2-pyridyl)pyrazol-4-yl]-1H-pyrrolo[2,3-b]pyridin-3-yl]benzimidazole] | 0.0001 to 1 µM | 0.0001 to 1 µM
Cc1cc(-c2cnc3[nH]cc(-c4ccc5ncn(C(C)(C)C)c5c4)c3n2)cnc1C#N [P-355, 5-[7-(3-tert-butylbenzimidazol-5-yl)-5H-pyrrolo[2,3-b]pyrazin-2-yl]-3-methyl-pyridine-2-carbonitrile] | 0.0001 to 1 µM | 0.0001 to 1 µM
CC(C)(C)n1cnc2ccc(-c3c[nH]c4ncc(-c5cccc(C#N)c5)cc34)cc21 [P-199, 3-[3-(3-tert-butylbenzimidazol-5-yl)-1H-pyrrolo[2,3-b]pyridin-5-yl]benzonitrile] | 0.0001 to 1 µM | 0.0001 to 1 µM
CCCS(=O)(=O)Nc1cccc(-c2cnc3[nH]cc(-c4ccc5ncsc5c4)c3n2)c1 [P-168, N-[3-[7-(1,3-benzothiazol-6-yl)-5H-pyrrolo[2,3-b]pyrazin-2-yl]phenyl]propane-1-sulfonamide] | 0.0001 to 1 µM | 0.0001 to 1 µM
O=C(C1CC1)N1CC=C(c2cnc3[nH]cc(-c4ccc5ncn(C6CCCNC6)c5c4)c3n2)C1 (stereo not drawn) [P-137, cyclopropyl-[3-[7-[3-(3-piperidyl)benzimidazol-5-yl]-5H-pyrrolo[2,3-b]pyrazin-2-yl]-2,5-dihydropyrrol-1-yl]methanone] | 0.0001 to 1 µM | 0.0001 to 1 µM
CCS(=O)(=O)Nc1cccc(-c2cnc3[nH]cc(-c4ccc5ncn(C)c5c4)c3n2)c1 [P-154, N-[3-[7-(3-methylbenzimidazol-5-yl)-5H-pyrrolo[2,3-b]pyrazin-2-yl]phenyl]ethanesulfonamide] | 0.0001 to 1 µM | 0.0001 to 1 µM
CN(C)c1ncc(-c2cnc3[nH]cc(-c4ccc5ncn(C(C)(C)C)c5c4)c3n2)cn1 [P-378, 5-[7-(3-tert-butylbenzimidazol-5-yl)-5H-pyrrolo[2,3-b]pyrazin-2-yl]-N,N-dimethyl-pyrimidin-2-amine] | 0.0001 to 1 µM | 0.0001 to 1 µM
COc1cc(-c2cnc3[nH]cc(-c4ccc5ncn(C6CCCC6)c5c4)c3n2)ccn1 [P-114, 7-(3-cyclopentylbenzimidazol-5-yl)-2-(2-methoxy-4-pyridyl)-5H-pyrrolo[2,3-b]pyrazine] | 0.0001 to 1 µM | 0.0001 to 1 µM

— US10160755B2 (Plexxikon Inc., priority 2015, dated 2018)
